One assay deals with T1, human DNMT1 (hDNMT1) (Homo sapiens, UniProt P26358).
T1 construct: His; made in house
Kind of assay: DNMT1 assay (radioactive Flashplate methylation assay). The conditions noted are these: for inhibition at 100 µM: 100 µM compound, read-out: % inhibition ± SD hDNMT1. Format: biochemical. Here is the method: His-DNMT1 (182 kDa, human) was cloned, expressed and purified as described by Lee et al.. The DNMT1 assay was performed according to Gros et al.. Briefly, the reaction was started by addition of 90 nM of DNMT1 on a mix containing the tested compound (up to 1% DMSO), 1 µM of a AdoMet/[methyl-^3H]-AdoMet mix in a ratio of 3-to-1 (isotopic dilution 1*:3) and 0.3 µM of biotinylated DNA duplex in 10 µL final volume. The reaction was incubated at 37°C for 2 h in reaction buffer (20 mM HEPES pH 7.2, 1 mM EDTA, 50 mM KCl, 25 µg/mL BSA). 8 µL are then transferred into a streptavidin-coated Flashplate PLUS (PerkinElmer) containing 190 µL of 20 µM AdoHcy (Sigma-Aldrich) in 50 mM Tris-HCl pH 7.4. The Flashplate was agitated at room temperature for 1 h, washed three times with 200 µL of 0.05% Tween-20 in 50 mM Tris-HCl pH 7.4 and read in 200 µL of 50 mM Tris-HCl pH 7.4 on TopCount NXT (PerkinElmer). Percentages of inhibition were calculated with the same formula as in DNMT3A assay.

Assay [1] relates to C-terminal catalytic domain of human DNMT3A (hDNMT3A). In words: DNMT3A assay (restriction-based fluorescence assay). Format: biochemical. The conditions noted are these: for selectivity for DNMT3A over G9a inhibition: G9a IC50 vs DNMT3A EC50. The text has this:
(§1) DNMT3A enzyme inhibition was adapted from the restriction-based fluorescence assay protocol described in Ceccaldi et al.. Briefly, a 5'-labelled biotin oligonucleotide is hybridized to its complementary strand labelled with 6-carboxyfluorescein at the 3′-end into a 384 well microplate (black Optiplates; Perkin Elmer) pre-coated with avidin. The duplex contains a unique CpG site overlapping with a restriction site of a methylation sensitive restriction enzyme. The C-terminal catalytic domain of human DNMT3A (residues 623–908), produced as described, was added in each well (200 ng/well) and mixed with the chemical compounds at desired concentrations and freshly prepared AdoMet (20 µM final concentration) to start the reaction in a total volume of 50 µL. After 1 hour incubation at 37°C each well were washed three times with PBS, 0.05% Tween-20, 500 mM NaCl and three more times with PBST. Specific fluorescent signals were detected with the methylation-sensitive restriction enzyme HpyCH4IV (NEB) as described and measured on a Perkin Elmer Envision detector. The percentage of inhibition is reported. The formula used to calculate the percentage of inhibition is [(X-Y)/X]×100, where X is the signal determined in the absence of the inhibitor and Y is the signal obtained in the presence of the inhibitor. […] The non-linear regression fittings with sigmoidal dose-response (variable slope) were performed with GraphPad Prism 4.03 (GraphPad Software).

For assay [2], the target named is T2, C-terminal catalytic domain of human DNMT3A (hDNMT3A) (Homo sapiens, UniProt Q9Y6K1).
T2 construct: catalytic domain of human DNMT3A (residues 623–908), produced as described; made in house
The description is as above. The format is biochemical. The note with it: for inhibition at 3.2 µM: 3.2 µM compound; for inhibition at 3.2 µM / inhibition at 10 µM / inhibition at 32 µM / inhibition at 100 µM: read-out: % inhibition ± SD hDNMT3A; for inhibition at 10 µM: 10 µM compound; for inhibition at 32 µM: 32 µM compound; for inhibition at 100 µM: 100 µM compound; for EC50: catalytic domain of hDNMT3A, means of at least three experiments.
Source text: as §1

The target of another assay is T3, Human G9a (Homo sapiens, UniProt Q96KQ7).
T3 sequence (Q96KQ7 786-1210 limits assumed): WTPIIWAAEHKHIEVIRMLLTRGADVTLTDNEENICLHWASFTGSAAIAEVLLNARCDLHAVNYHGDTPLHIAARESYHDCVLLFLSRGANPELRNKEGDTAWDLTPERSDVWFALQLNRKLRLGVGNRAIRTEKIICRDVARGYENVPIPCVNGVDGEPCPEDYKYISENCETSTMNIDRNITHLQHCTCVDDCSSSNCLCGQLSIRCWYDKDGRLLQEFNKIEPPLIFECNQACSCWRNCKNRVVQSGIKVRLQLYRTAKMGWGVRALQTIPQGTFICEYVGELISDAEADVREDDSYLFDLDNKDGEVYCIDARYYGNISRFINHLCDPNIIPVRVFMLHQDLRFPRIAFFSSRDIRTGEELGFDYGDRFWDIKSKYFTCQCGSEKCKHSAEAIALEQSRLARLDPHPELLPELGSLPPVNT
Kind of assay: G9a assay (3H-AdoMet filter-binding). The format is biochemical. The conditions noted are these: for IC50: 10-dose IC50 mode, 2-fold serial dilution starting at 400 µM. As to the method:
The reaction buffer was 50 mM Tris-HCl, pH 8.5, 50 mM NaCl, 5 mM MgCl2, 1 mM dithiothreitol (DTT), 1 mM PMSF, and 1% DMSO. Standard substrate concentrations were 5 µM biotinylated H3 (1–21) peptide (AnaSpec) substrate and 0.1 mM AdoMet. For control compound IC50 determinations, the test compounds were diluted in DMSO and then added to the enzyme/substrate mixture in nanoliter amounts by using an acoustic technology (Echo 500; Lab-cyte). The reaction was initiated by the addition of ^3H-AdoMet, and incubated at 30°C for 1 h. The reaction was detected by a filter-binding method. Data analysis was performed using Graph Pad Prism software for curve fits, and GraFit (Erithacus) for global fit of kinetic studies.

A further assay concerns RAJI cells. Kind of assay: Cell viability by trypan blue exclusion, RAJI. Format: cell-based, human. The note with it: 48 h; for IC50: Homo sapiens, Raji, read-out: IC50 (mean ± SD) cell viability RAJI. As to the method:
(§2) U-937 and RAJI cell lines were purchased from Deutsche Sammlung für Mikroorganismen und Zellkulturen (DSZM). Cells were maintained in RPMI 1640 (Lonza) supplemented with 10% fetal calf serum (Lonza) and 1% antibiotic–antimycotic (Lonza). Cells were treated with compounds at the indicated concentrations in exponential growth phase. Proliferation and viability were assessed by trypan blue exclusion analysis at the indicated time points.

In the next assay the test system is U-937 cells. Kind of assay: Cell viability by trypan blue exclusion, U-937. The format is cell-based, human. The conditions noted are these: U-937, 48 h; for IC50: Homo sapiens, read-out: IC50 (mean ± SD) cell viability U-937. As to the method: as §2

T2 sequence (Q9Y6K1 627-912): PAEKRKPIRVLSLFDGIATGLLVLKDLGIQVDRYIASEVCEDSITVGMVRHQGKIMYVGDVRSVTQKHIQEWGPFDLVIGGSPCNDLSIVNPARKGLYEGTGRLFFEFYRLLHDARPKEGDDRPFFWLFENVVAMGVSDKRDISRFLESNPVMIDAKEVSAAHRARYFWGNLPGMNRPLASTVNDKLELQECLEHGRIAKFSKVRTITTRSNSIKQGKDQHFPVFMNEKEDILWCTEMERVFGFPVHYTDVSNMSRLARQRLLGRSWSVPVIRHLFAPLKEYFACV
T1 sequence (P26358 whole entry): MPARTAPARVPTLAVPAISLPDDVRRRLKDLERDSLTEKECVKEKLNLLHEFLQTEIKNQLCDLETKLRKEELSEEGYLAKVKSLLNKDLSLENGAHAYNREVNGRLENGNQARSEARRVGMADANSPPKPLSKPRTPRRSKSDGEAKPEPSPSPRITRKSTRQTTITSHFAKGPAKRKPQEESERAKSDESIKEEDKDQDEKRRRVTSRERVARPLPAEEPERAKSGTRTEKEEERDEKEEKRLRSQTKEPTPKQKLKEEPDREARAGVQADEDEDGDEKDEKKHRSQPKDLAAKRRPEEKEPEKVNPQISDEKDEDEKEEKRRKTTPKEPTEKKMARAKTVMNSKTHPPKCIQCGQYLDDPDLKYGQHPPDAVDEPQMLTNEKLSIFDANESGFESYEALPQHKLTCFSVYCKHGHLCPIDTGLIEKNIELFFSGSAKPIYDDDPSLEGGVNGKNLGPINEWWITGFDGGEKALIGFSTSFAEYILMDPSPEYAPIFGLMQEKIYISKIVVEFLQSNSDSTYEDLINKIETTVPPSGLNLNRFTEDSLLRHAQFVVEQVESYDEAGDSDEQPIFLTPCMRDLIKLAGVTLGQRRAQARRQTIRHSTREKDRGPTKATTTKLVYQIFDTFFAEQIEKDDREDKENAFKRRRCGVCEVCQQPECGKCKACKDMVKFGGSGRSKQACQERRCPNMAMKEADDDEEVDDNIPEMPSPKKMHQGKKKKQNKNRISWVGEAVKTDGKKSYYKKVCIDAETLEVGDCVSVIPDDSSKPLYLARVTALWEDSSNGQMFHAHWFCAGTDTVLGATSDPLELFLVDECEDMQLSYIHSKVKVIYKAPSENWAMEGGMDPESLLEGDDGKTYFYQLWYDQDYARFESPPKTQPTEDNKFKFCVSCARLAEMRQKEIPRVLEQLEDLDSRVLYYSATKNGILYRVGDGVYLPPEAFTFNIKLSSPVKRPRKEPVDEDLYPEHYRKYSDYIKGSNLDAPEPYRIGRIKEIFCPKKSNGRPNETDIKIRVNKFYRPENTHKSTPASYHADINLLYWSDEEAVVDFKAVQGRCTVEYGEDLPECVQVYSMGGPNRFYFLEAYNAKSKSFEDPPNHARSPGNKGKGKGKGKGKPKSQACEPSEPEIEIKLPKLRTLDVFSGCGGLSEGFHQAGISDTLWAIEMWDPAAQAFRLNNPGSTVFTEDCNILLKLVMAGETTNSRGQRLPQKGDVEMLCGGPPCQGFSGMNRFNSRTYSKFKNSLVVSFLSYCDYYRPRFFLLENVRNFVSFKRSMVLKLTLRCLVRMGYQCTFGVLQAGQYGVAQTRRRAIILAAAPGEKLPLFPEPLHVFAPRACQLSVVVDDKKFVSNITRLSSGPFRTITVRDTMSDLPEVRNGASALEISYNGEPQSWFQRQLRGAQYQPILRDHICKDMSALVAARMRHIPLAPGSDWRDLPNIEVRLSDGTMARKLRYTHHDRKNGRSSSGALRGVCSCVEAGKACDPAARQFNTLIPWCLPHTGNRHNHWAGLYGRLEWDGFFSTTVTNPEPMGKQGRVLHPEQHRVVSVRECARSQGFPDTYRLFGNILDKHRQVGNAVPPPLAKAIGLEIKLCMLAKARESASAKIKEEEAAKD

By inhibition is commonly meant the change of the read-out against control, counted positive when it falls. For orientation: EC50 means the midpoint of the concentration-response curve. As a reminder, the IC50 is the concentration needed to halve the response being measured. Consider `CN1CCCN(c2nc(NC3CCN(Cc4ccccc4)CC3)c3ccccc3n2)CC1` [Compound 4], for which the inhibition at 100 µM on human DNMT1 (hDNMT1) stood at 0%. The “selectivity for DNMT3A over G9a inhibition” value in assay [1] is above 40 fold. Further, in assay [2], the inhibition at 3.2 µM came to 16 ± 4%, the inhibition at 10 µM was 39 ± 2%, the inhibition at 32 µM is 55 ± 3% and the inhibition at 100 µM was 67 ± 3%. It took 10 ± 2.5 µM to reach a half-maximal effect in assay [2] (EC50). On Human G9a, this compound returned an inhibition at 0.78 µM of 0%, an inhibition at 1.56 µM of 0%, an inhibition at 3.1 µM of 1.9% and an inhibition at 6.2 µM of 0%. At Human G9a, this compound displayed an inhibition at 25 µM of 0%, an inhibition at 50 µM of 7.9%, an inhibition at 100 µM of 21.8% and an inhibition at 200 µM of 16.4%. In addition, at Human G9a, the inhibition at 400 µM was 23.5% and the 50% inhibitory concentration (IC50) is above 400 µM. Besides, the IC50 in the assay on RAJI cells worked out at 21.1 ± 2.5 µM. Besides, the 50% inhibitory concentration (IC50) in the assay on U-937 cells is 16.6 ± 3.8 µM.
Turning to `c1ccc(CN2CCC(Nc3nc(N4CCCC4)nc4ccccc34)CC2)cc1` [Compound 10, N-(1-benzylpiperidin-4-yl)-2-(pyrrolidin-1-yl)quinazolin-4-amine], the inhibition at 10 µM at human DNMT1 (hDNMT1) (10 µM compound) came out at 6.5%. Besides, on human DNMT1 (hDNMT1) (32 µM compound), the inhibition at 32 µM was 18%. The inhibition at 100 µM on human DNMT1 (hDNMT1) amounted to 47 ± 1.7%. Moreover, the EC50 at human DNMT1 (hDNMT1) (means of at least three experiments) turned out to be 144 ± 35 µM. Also, the “selectivity for DNMT3A over G9a inhibition” value in assay [1] worked out at 18 fold. Moreover, the “selectivity for DNMT3A over DNMT1” value in assay [1] (ratio of EC50 values) stood at 4 fold. Moreover, in assay [2], the inhibition at 3.2 µM is 8 ± 4%, the inhibition at 10 µM was determined as 21 ± 8%, the inhibition at 32 µM came out at 43 ± 6% and the inhibition at 100 µM worked out at 70 ± 4%. For the same compound, in assay [2], the concentration for a half-maximal effect (EC50) turned out to be 35 ± 12 µM. At Human G9a, this compound came in with an inhibition at 0.78 µM of 0.3%, an inhibition at 1.56 µM of 13.4%, an inhibition at 3.1 µM of 14.7% and an inhibition at 6.2 µM of 4.6%. On Human G9a, this compound showed an inhibition at 12.5 µM of 5.9%, an inhibition at 25 µM of 13%, an inhibition at 50 µM of 18.6% and an inhibition at 100 µM of 20.8%. On Human G9a, this compound yielded an inhibition at 200 µM of 49.5%, an inhibition at 400 µM of 37.8% and a concentration for half-maximal inhibition (IC50) above 400 µM. Further, the IC50 in the assay with RAJI cells was 18.7 ± 4.3 µM. Further, the IC50 in the assay with U-937 cells was 14.7 ± 3.8 µM.
As for `c1ccc(CN2CCC(Nc3nc(N4CCN(c5ccccn5)CC4)nc4ccccc34)CC2)cc1` [Compound 13], the inhibition at 100 µM on human DNMT1 (hDNMT1) turned out to be 0%. For the same compound, in assay [1], the “selectivity for DNMT3A over G9a inhibition” value was above 40 fold. Also, in assay [2], the inhibition at 3.2 µM was found to be 8 ± 1%, the inhibition at 10 µM came out at 19 ± 13%, the inhibition at 32 µM was determined as 52 ± 5% and the inhibition at 100 µM is 62 ± 3%. The response in assay [2] was half-maximal at 12 ± 4 µM (EC50). At Human G9a, this compound yielded an inhibition at 0.78 µM of 9.4%, an inhibition at 1.56 µM of 21.6%, an inhibition at 3.1 µM of 11% and an inhibition at 6.2 µM of 16.7%. On Human G9a, this compound had an inhibition at 12.5 µM of 0%, an inhibition at 25 µM of 11.1%, an inhibition at 50 µM of 27.2% and an inhibition at 100 µM of 24.9%. At Human G9a, this compound gave an inhibition at 200 µM of 29.2%, an inhibition at 400 µM of 14% and an IC50 above 400 µM. Further, the 50% inhibitory concentration (IC50) in the assay with RAJI cells was determined as 19.7 ± 1.4 µM. In the assay with U-937 cells, the IC50 was 18.8 ± 1.2 µM.
In the case of `c1ccc(CN2CCC(Nc3nc(N4CCN(c5ccccc5)CC4)nc4ccccc34)CC2)cc1` [Compound 14, N-(1-benzylpiperidin-4-yl)-2-(4-phenylpiperazin-1-yl)quinazolin-4-amine], the inhibition at 100 µM at human DNMT1 (hDNMT1) was 0%. Besides, the “selectivity for DNMT3A over G9a inhibition” value in assay [1] was above 40 fold. Also, in assay [2], the inhibition at 3.2 µM worked out at 13 ± 2%, the inhibition at 10 µM stood at 40 ± 4%, the inhibition at 32 µM turned out to be 54 ± 3% and the inhibition at 100 µM amounted to 63 ± 4%. In addition, a half-maximal response in assay [2] (EC50) required 9 ± 2 µM. For the same compound, at Human G9a, 0.78 µM produced 17.3% inhibition, the inhibition at 1.56 µM came out at 13.5%, the inhibition at 3.1 µM is 0% and the inhibition at 6.2 µM came to 4.2%. Moreover, on Human G9a, at 12.5 µM the inhibition was 21.3%, the inhibition at 25 µM was found to be 10.6%, the inhibition at 50 µM worked out at 16.5% and testing at 100 µM gave an inhibition of 22.4%. For the same compound, at Human G9a, at 200 µM the inhibition was 23.8%, the inhibition at 400 µM was determined as 24% and the IC50 is above 400 µM. The 50% inhibitory concentration (IC50) in the assay on RAJI cells came to 3.4 ± 0.3 µM. In addition, the “antiproliferative potency compared to SGI-1027, fold more potent” value with RAJI cells (RAJI) stood at 3 fold. For the same compound, in the assay on U-937 cells, the half-inhibitory concentration (IC50) came to 4.4 ± 1.4 µM and the “antiproliferative potency compared to SGI-1027, fold less efficient” value turned out to be 2.6 fold.

Values taken from publication PMC4014597 (PLoS ONE, 2014).
